Measured values: patent US20070219180A1, “Muscle Relaxtion Accelerator and Therapeutic Agent for Muscular Tissue Diseases Such as Muscle Relaxation Failure” (priority 2004, published 2007)

What was measured:
[1] = test system: binding of troponin I to the actin-tropomyosin complex; test: Experiment 4 and comparison example: co-precipitation (binding) of troponin I with the actin-tropomyosin complex in the presence of EGTA; parameters: species or system swine; settings: 10 mM EGTA, 100,000×g 120 min 25° C.
Procedure: The actin-tropomyosin complex and the troponin C-I complex are usually detected by analyzing the precipitate obtained by ultracentrifugation of a mixture containing the actin-tropomyosin complex and the troponin C-I complex for 120 minutes at 100,000×g at 25° C. The binding of the troponin C-I complex to the actin-tropomyosin complex in muscle tissues can be confirmed by the detected actin-tropomyosin complex and the detected troponin C-I complex. For example, when a mixture containing the actin-tropomyosin complex and the troponin C-I complex is ultracentrifuged in the presence of EGTA as a calcium chelating agent (in other words, in the absence of calcium ions), the actin-tropomyosin complex and the troponin C-I complex combine each other to precipitate together. Detection of troponin I in the precipitate using SDS-gel electrophoresis allows confirmation that the precipitate contains a complex formed by the actin-tropomyosin complex and the troponin C-I complex.
A precipitate due to binding of the actin-tropomyosin complex and troponin I is usually not formed when a mixture containing the actin-tropomyosin complex, troponin and propranolol (a β-blocker) used as a therapeutic agent for heart failure is ultracentrifuged at 100,000×g for 120 minutes 25° C.
Swine muscle-derived actin, chicken gizzard-derived tropomyosin and swine myocardium-derived troponin used in this experiment were purchased from Sigma-Aldrich Corporation, and other unspecified reagents used in this experiment were purchased from Wako Pure Chemical Industries Ltd.
A 500 μl sample was prepared by adding 4.2 μg of actin, 2.1 μg of tropomyosin and 14 μg of troponin to 500 μl of a reaction solution containing 60 mM KCl, 20 mM MOPS (3-morpholinopropanesulfonic acid), 2 mM of MgCl2, 0.05 μg of pepstatin A, and 15 mM 2-mercaptoethanol. After centrifugation of this sample at 2,000×g for 10 minutes at 25° C., the precipitate was removed and the resulting supernatant was distributed to separate test tubes containing 10 mM of EGTA, and each tube was determined as a test sample.
Each test sample was reacted for 120 minutes at 25° C. and centrifuged at 100,000×g for 120 minutes at 25° C., and the supernatants were removed. After reaction solution was gently added to the removed precipitate so as not to suspend the precipitate, the precipitate was again removed by suction, washed, and determined as a test precipitate.
A sample buffer for polyacrylamide gel electrophoresis (SDS-PAGE) was added to each washed test precipitate and mixed well to suspend the test precipitate. The resulting suspension was electrophoresized on a gel (PAG MINI “No. 1” 10/20) for about 1 hour at 40 mA. After electrophoresis, the suspension was silver-stained using “Daiichi” 2D-silver staining reagent (Daiichi Pure Chemicals Co., Ltd), and washed with distilled water and dried. The amount of precipitate in each silver-stained protein band obtained by gel electrophoresis was quantitated using a densitometer.
The amounts of precipitate of troponin I in the second to fifth test precipitates were calculated as ratios of the amount of precipitate of troponin I in the first test precipitate, which was obtained without the compound (the concentration of the compound was 0 M).
The affinity of troponin I for the actin-tropomyosin complex was measured using the same method as in Experiment 4, but using propranolol (a β-blocker which is used as a therapeutic agent for heart failure) for comparison with the compound in the invention.
A 500 μl sample was prepared by adding 4.2 μg of actin, 2.1 μg of tropomyosin and 14 μg of troponin I to 500 μl of a reaction solution containing 60 mM KCl, 20 mM MOPS (3-morpholinopropanesulfonic acid), 2 mM MgCl2, 0.05 μg of pepstatin A, and 15 mM 2-mercaptoethanol. […]

white rabbits = test: Experiment 8: inhibition of clofilium-induced torsades de pointes; format: in vivo, rabbit
Procedure: Inhibition of clofilium-induced torsades de pointes by the compound In this experiment, four white rabbits (weight: 2.8-3.2 kg) were used. Each rabbit was intravenously anesthetized with 5 mg/kg methohexital sodium. Injection catheters for the compound and test drug were inserted into the right external jugular veins of the rabbits, and microchip catheters (SPC-320, Millar) for blood pressure measurement were inserted via the right common arteries, under artificial respiration by endotracheal intubation.
The compound solution was prepared by dissolving 100 mg of the compound in 1 ml of dimethylsulfoxide (DMSO), and stored at 4° C.
A 2-lead electrocardiogram and blood pressure of each rabbit were recorded simultaneously on a personal computer via an A/D converter. In this experiment, a sequence of more than 6 polymorphic ventricular tachycardia configurations on the electrocardiogram was defined as torsades de pointes. The number of onsets of torsades de pointes was recorded by electrocardiogram for 30 minutes after administration of clofilium. Methoxamine (an α-stimulant) was used to rapidly induce torsades de pointes. The compound, methoxyamine and clofilium were administered in physiological saline. […]

COc1ccc2c(c1)CN(C(=O)CCN1CCC(Cc3ccccc3)CC1)CCS2 [the compound, 4-[3-(4-benzylpiperidine-1-yl)propionyl]-7-methoxy-2,3,4,5-tetrahydro-1,4-benzothiazepine] was tested, and the “Precipitate of troponin I (ratio to the sample without drug)” value ([1]; drug concentration 10^−4 mol) was 2.8, the “Precipitate of troponin I (ratio to the sample without drug)” value ([1]; drug concentration 10^−5 mol) was 2.2 and the “Precipitate of troponin I (ratio to the sample without drug)” value ([1]; drug concentration 10^−6 mol) was 1.8. For the same compound, the “Precipitate of troponin I (ratio to the sample without drug)” value ([1]; drug concentration 10^−7 mol) was 1.2, the “Onset of torsades de pointes (electrocardiogram)” value (white rabbits; clofilium 50 μg/kg/min + the compound 0.2 mg/kg/min i.v., monitored 30 minutes) was “completely prevented” and the “Incidence of torsades de pointes” value (white rabbits; number of onsets in 30 minutes after start of clofilium 50 μg/kg/min under methoxamine 15 μg/kg/min, the compound 0.2 mg/kg/min i.v. for 30 min) was 0.
